Patent publication US7655420B2, “Methods to increase or decrease bone density” (Celltech R & D, Inc., priority 2002, dated 2010)
Entries after “also recorded” stand apart in the source; their conditions may differ.

Legend:
[1] = system: SOST expression; assay: BMP-6 induction of SOST expression in hMSC cells with test compounds (RT-PCR); type: cell-based, human; conditions: for Results (effect on BMP-6 induction of SOST expression): BMP-6, 72 hrs; for induction of SOST expression by BMP-6 (BMP-induced SOST expression): 72 hrs, no single concentration stated in the sentence
Experimental: The previous example illustrates that SOST expression was enhanced by bone morphogenetic proteins and modulated by steroids such as dexamethasone. In this example, human MSC cells were incubated with bone morphogenetic proteins in the presence of various test agents to determine whether other steroids and compounds could affect the BMP-induction of SOST. SOST expression was monitored by reverse transcriptase polymerase chain reaction (RT-PCR).
Human mesenchymal cells (hMSCs) were plated in regular growth media containing 2% FCS and treated with BMP-6 either alone or in combination with the test compounds. The cells were harvested 72 hrs later and RNA was prepared for RT-PCR analysis of SOST expression.

[2] = system: caspase activity in hMSC cells; assay: apoptosis of hMSC cells by caspase activity (Homogeneous Caspase ELISA); type: cell-based, human; conditions: for human sclerostin-induced increase in caspase activity, effect of caspase inhibitors / apoptosis of hMSC cells (caspase activity), rat versus human sclerostin: hMSC cells, 24 hrs; for human sclerostin-induced increase in caspase activity, effect of caspase inhibitors: Roche ELISA; for caspase activity: hMSC in osteoblast-inducing media, 20 μg/ml sclerostin or other protein, 24 hours
Experimental: Human mesenchymal (hMSC) cells were plated in Osteoblast-inducing media (Biowhittaker's MSCGM medium supplemented with 100 nM dexamethasone, 50 μg/ml ascorbic acid, and 10 mM β-glycerophosphate) at a density of 10,000 cells/cm^2 in 96-well dishes.
For apoptosis assays, cells were treated with sclerostin or commercially available preparations of the BMP antagonists noggin, chordin, gremlin or twisted gastrulation (Tsg) for 24 hours prior to assay for caspase activity. In some experiments, cells were treated for various times with a partially purified preparation of baculovirus-expressed human sclerostin (0 to 30 μg/ml) or an equal volume of a protein preparation purified from Sf9 conditioned media (control) in the absence or presence of Calbiochem's caspase inhibitors. Cells were harvested and processed for apoptosis assays using the Homogeneous Caspase ELISA (Roche) or Cell Death (Histone-Associated DNA Fragmentation, Roche).

How did the “Results (effect on BMP-6 induction of SOST expression)” value (from here on “Results”) ([1]; compound at 1 × 10^−6 M) turn out when `O=C1C=C(S(=O)(=O)O)c2ccccc2C1=O` [1,2-napthoquinone-4-sulfate] was run?
The value was “No Effect”.

And the “Results” value ([1]; compound at 5 × 10^−6 M)?
Its value is “No Effect”.

`COC(=O)C[C@H](NC(=O)[C@H](C)NC(=O)[C@@H](NC(=O)[C@H](Cc1ccc(O)cc1)NC(=O)OCc1ccccc1)C(C)C)C(=O)CF` [Caspase-1, Inhibitor VI, reference compound] was tested. Which “human sclerostin-induced increase in caspase activity, effect of caspase inhibitors” value [2] did it give?
Its value is “blocked”.

What about the “human sclerostin-induced increase in caspase activity, effect of caspase inhibitors” value ([2]; listed as Cas-1) of the same molecule?
The value was “efficiently blocked”.

What about the “human sclerostin-induced increase in caspase activity, effect of caspase inhibitors” value ([2]; listed as Caspase-1 inhibitor) of the same molecule?
The value was “effectively blocked”.

How did the “human sclerostin-induced increase in caspase activity, effect of caspase inhibitors” value [2] turn out when `CC(=O)N[C@@H](CC(=O)O)C(=O)N[C@@H](CCC(=O)O)C(=O)N[C@H](C(=O)N[C@H](C=O)CC(=O)O)C(C)C` [Caspase-3, Inhibitor I, reference compound] was run?
Its value is “blocked”.

What about the “human sclerostin-induced increase in caspase activity, effect of caspase inhibitors” value ([2]; listed as Cas-3) of the same molecule?
Its value is “efficiently blocked”.

What about the “human sclerostin-induced increase in caspase activity, effect of caspase inhibitors” value ([2]; listed as Caspase-3 inhibitor) of the same molecule?
The value was “effectively blocked”.

Which “induction of SOST expression by BMP-6 (BMP-induced SOST expression)” value [1] does the source give for `CC1(C)O[C@@H]2C[C@H]3[C@@H]4C[C@H](F)C5=CC(=O)C=C[C@]5(C)[C@@]4(F)[C@@H](O)C[C@]3(C)[C@]2(C(=O)CO)O1` [Fluocinolone acetonide] here?
The value was “blocks”.

What about the “Results” value ([1]; compound at 1 × 10^−7 M) of the same molecule?
The value was “Inhibition”.

And the “Results” value ([1]; compound at 1 × 10^−7 M, listed as Fluo)?
The value was “blocked”.

What about the “Results” value ([1]; compound at 1 × 10^−7 M, listed as fluocinolone acetonide) of the same molecule?
Its value is “effectively blocked”.

For `C[C@]12CC[C@@H]3c4ccc(O)cc4C[C@@H](CCCCCCCCC[S+]([O-])CCCC(F)(F)C(F)(F)F)[C@H]3[C@@H]1CC[C@@H]2O` (stereo partly drawn) [ICI 182,780], which “Results” value ([1]; compound at 1 × 10^−6 M) is on record?
Its value is “minimal effects; also recorded: No Effect”.

`CC[C@H](C)C(=O)O[C@H]1C[C@@H](C)C=C2C=C[C@H](C)[C@H](CC[C@@H]3C[C@@H](O)CC(=O)O3)[C@H]21` [Lovastatin/Mevinolin, Lovastatin] was tested. Which “Results” value ([1]; compound at 1 × 10^−7 M) did it give?
The value was “No Effect”.

And the “Results” value ([1]; compound at 1 × 10^−7 M, listed as lovastatin)?
The value was “minimal effects”.

How did the “Results” value ([1]; compound at 2 × 10^−6 M) turn out when `COc1cccc(-c2cc(=O)c3ccccc3o2)c1N` [PD98059] was run?
The value was “No Effect”.

What does the source list for `CCCCC[C@H](O)/C=C/[C@H]1[C@H](O)CC(=O)[C@@H]1C/C=C\CCCC(=O)O` [Prostaglandin E2]?
induction of SOST expression by BMP-6 (BMP-induced SOST expression) [1]: blocks; Results (effect on BMP-6 induction of SOST expression) ([1]; compound at 1 × 10^−6 M): Inhibition; Results (effect on BMP-6 induction of SOST expression) ([1]; compound at 1 × 10^−6 M, listed as PGE2): blocked; Results (effect on BMP-6 induction of SOST expression) ([1]; compound at 1 × 10^−6 M, listed as prostaglandin E2): effectively blocked; Results (effect on BMP-6 induction of SOST expression) ([1]; compound at 1 × 10^−7 M): Inhibition

How did the “Results” value ([1]; compound at 2 × 10^−6 M) turn out when `CCc1[nH]c(-c2ccc(OC)cc2)nc1-c1ccncc1` [SB202474] was run?
Its value is “No Effect”.

How did the “Results” value ([1]; compound at 2 × 10^−6 M) turn out when `C[S+]([O-])c1ccc(-c2nc(-c3ccncc3)c(-c3ccc(F)cc3)[nH]2)cc1` (stereo not drawn) [SB203580] was run?
Its value is “No Effect”.

What does the source list for `CC(=O)S[C@@H]1CC2=CC(=O)CC[C@]2(C)[C@H]2CC[C@@]3(C)[C@@H](CC[C@@]34CCC(=O)O4)[C@H]12` [Spironolactone]?
Results (effect on BMP-6 induction of SOST expression) ([1]; compound at 1 × 10^−6 M): No Effect; Results (effect on BMP-6 induction of SOST expression) ([1]; compound at 1 × 10^−7 M): No Effect

With `C[C@H](CCC(=O)NCCS(=O)(=O)O)[C@H]1CC[C@H]2[C@@H]3[C@@H](O)C[C@@H]4C[C@H](O)CC[C@]4(C)[C@H]3CC[C@]12C` [Tauroursodeoxycholic acid] as the molecule, how does the “Results” value ([1]; compound at 2 × 10^−6 M) read?
Its value is “No Effect”.

What about the “Results” value ([1]; compound at 2 × 10^−6 M, listed as tauroursodeoxycholic acid) of the same molecule?
Its value is “minimal effects”.

And the “Results” value ([1]; compound at 2 × 10^−7 M)?
Its value is “No Effect”.

With `C[C@]12C=CC(=O)C=C1CC[C@H]1[C@@H]3C[C@@H](O)[C@](O)(C(=O)CO)[C@@]3(C)C[C@H](O)[C@@]12F` [Triamcinolone] as the molecule, how does the “induction of SOST expression by BMP-6 (BMP-induced SOST expression)” value [1] read?
Its value is “blocks”.

What about the “Results” value ([1]; compound at 1 × 10^−7 M) of the same molecule?
Its value is “blocked; also recorded: Inhibition”.

And the “Results” value ([1]; compound at 1 × 10^−7 M, listed as triamcinolone)?
The value was “blocked”.

How did the “Results” value ([1]; compound at 1 × 10^−7 M) turn out when “Parathyroid Hormone (1-34): Calciotrophic Peptide (SVSEIQLMHNLGKHLNSMERVEWLRKKLQDVHNF; Parathyroid hormone; UniProt P01270 32-65, looked up, fragment)” was run?
The value was “No Effect”.

B1: inactivated sclerostin: inactive preparation of sclerostin, as determined by lack of effects in other biological and biochemical assays (protein, UniProt Q9BQB4 24-213, looked up)
Sclerostin: QGWQAFKNDATEIIPELGEYPEPPPELENNKTMNRAENGGRPPHHPFETKDVSEYSCRELHFTRYVTDGPCRSAKPVTELVCSGQCGPARLLPNAIGRGKWWRPSGPDFRCIPDRYRAQRVQLLCPGGEAPRARKVRLVASCKCKRLTRFHNQSELKDFGTEAARPQKGRKPRPRARSAKANQAELENAY
modifications: inactivated preparation
Which caspase activity [2] does the source give for B1 here?
The caspase activity was “no significant effect”.

And the caspase activity ([2]; listed as inactive preparation of sclerostin)?
Its caspase activity is “did not significantly affect”.

B2: chordin: commercially available BMP antagonist (protein, UniProt Q9H2X0 27-955, looked up)
Chordin: AGPEPPVLPIRSEKEPLPVRGAAGCTFGGKVYALDETWHPDLGEPFGVMRCVLCACEAPQWGRRTRGPGRVSCKNIKPECPTPACGQPRQLPGHCCQTCPQERSSSERQPSGLSFEYPRDPEHRSYSDRGEPGAEERARGDGHTDFVALLTGPRSQAVARARVSLLRSSLRFSISYRRLDRPTRIRFSDSNGSVLFEHPAAPTQDGLVCGVWRAVPRLSLRLLRAEQLHVALVTLTHPSGEVWGPLIRHRALAAETFSAILTLEGPPQQGVGGITLLTLSDTEDSLHFLLLFRGLLEPRSGGLTQVPLRLQILHQGQLLRELQANVSAQEPGFAEVLPNLTVQEMDWLVLGELQMALEWAGRPGLRISGHIAARKSCDVLQSVLCGADALIPVQTGAAGSASLTLLGNGSLIYQVQVVGTSSEVVAMTLETKPQRRDQRTVLCHMAGLQPGGHTAVGICPGLGARGAHMLLQNELFLNVGTKDFPDGELRGHVAALPYCGHSARHDTLPVPLAGALVLPPVKSQAAGHAWLSLDTHCHLHYEVLLAGLGGSEQGTVTAHLLGPPGTPGPRRLLKGFYGSEAQGVVKDLEPELLRHLAKGMASLMITTKGSPRGELRGQVHIANQCEVGGLRLEAAGAEGVRALGAPDTASAAPPVVPGLPALAPAKPGGPGRPRDPNTCFFEGQQRPHGARWAPNYDPLCSLCTCQRRTVICDPVVCPPPSCPHPVQAPDQCCPVCPEKQDVRDLPGLPRSRDPGEGCYFDGDRSWRAAGTRWHPVVPPFGLIKCAVCTCKGGTGEVHCEKVQCPRLACAQPVRVNPTDCCKQCPVGSGAHPQLGDPMQADGPRGCRFAGQWFPESQSWHPSVPPFGEMSCITCRCGAGVPHCERDDCSLPLSCGSGKESRCCSRCTAHRRPAPETRTDPELEKEAEGS
With B2 as the molecule, how does the caspase activity [2] read?
Its caspase activity is “no increase; also recorded: no significant effect”.

B3: gremlin: commercially available BMP antagonist (protein, UniProt O60565 25-184, looked up)
Gremlin-1: KKKGSQGAIPPPDKAQHNDSEQTQSPQQPGSRNRGRGQGRGTAMPGEEVLESSQEALHVTERKYLKRDWCKTQPLKQTIHEEGCNSRTIINRFCYGQCNSFYIPRHIRKEEGSFQSCSFCKPKKFTTMMVTLNCPELQPPTKKKRVTRVKQCRCISIDLD
B3 was tested. Which caspase activity [2] did it give?
Its caspase activity is “no increase; also recorded: no significant effect”.

B4: Tsg: twisted gastrulation, commercially available BMP antagonist (protein, UniProt Q9GZX9 26-223, looked up)
Twisted gastrulation protein …: CNKALCASDVSKCLIQELCQCRPGEGNCSCCKECMLCLGALWDECCDCVGMCNPRNYSDTPPTSKSTVEELHEPIPSLFRALTEGDTQLNWNIVSFPVAEELSHHENLVSFLETVNQPHHQNVSVPSNNVHAPYSSDKEHMCTVVYFDDCMSIHQCKISCESMGASKYRWFHNACCECIGPECIDYGSKTVKCMNCMF
For B4, which caspase activity [2] is on record?
The caspase activity was “no increase; also recorded: no significant effect”.

B5: rat sclerostin: rat sclerostin protein (SEQ ID NO:8) (protein, listed as Rattus norvegicus)
chain: MQLSLAPCLACLLVHAAFVAVESQGWQAFKNDATEIIPGLREYPEPPQELENNQTMNRAENGGRPPHHPYDTKDVSEYSCRELHYTRFVTDGPCRSAKPVTELVCSGQCGPARLLPNAIGRVKWWRPNGPDFRCIPDRYRAQRVQLLCPGGAAPRSRKVRLVASCKCKRLTRFHNQSELKDFGPETARPQKGRKPRPRARGAKANQAELENAY
With B5 as the molecule, how does the “apoptosis of hMSC cells (caspase activity), rat versus human sclerostin” value [2] read?
Its value is “induced the apoptosis”.

And the “apoptosis of hMSC cells (caspase activity), rat versus human sclerostin” value ([2]; listed as Rat sclerostin)?
Its value is “increased the apoptosis of hMSC cells but to a lesser extent”.
